Experimental data: paper PMC3274775 (ACS medicinal chemistry letters, 2011)
“Also recorded” adds a separate entry of the source. Like-named read-outs stand apart in the source and are kept apart here.

Columns and labels:
UGT 2B7 = biological target: T1, UGT 2B7 (Homo sapiens, UniProt P16662); experiment: UGT substrate assay
T1 sequence (P16662 24-529): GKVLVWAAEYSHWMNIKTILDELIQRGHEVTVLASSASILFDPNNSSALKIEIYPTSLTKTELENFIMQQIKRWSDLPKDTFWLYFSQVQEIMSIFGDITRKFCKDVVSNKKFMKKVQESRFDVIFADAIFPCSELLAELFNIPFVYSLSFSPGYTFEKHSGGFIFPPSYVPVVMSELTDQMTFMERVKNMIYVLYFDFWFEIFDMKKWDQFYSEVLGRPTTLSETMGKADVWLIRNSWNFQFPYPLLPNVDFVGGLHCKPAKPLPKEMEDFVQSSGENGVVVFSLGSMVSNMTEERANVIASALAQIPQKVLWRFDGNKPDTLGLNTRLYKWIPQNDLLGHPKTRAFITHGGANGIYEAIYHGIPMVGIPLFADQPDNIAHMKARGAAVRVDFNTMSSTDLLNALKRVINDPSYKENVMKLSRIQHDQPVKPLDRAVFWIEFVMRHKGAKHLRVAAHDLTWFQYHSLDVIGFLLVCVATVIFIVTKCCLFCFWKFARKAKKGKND

UGT 1A1 [1] = biological target: T2, UGT 1A1 (Homo sapiens, UniProt P22309); experiment: UGT substrate assay
T2 sequence (P22309 26-533): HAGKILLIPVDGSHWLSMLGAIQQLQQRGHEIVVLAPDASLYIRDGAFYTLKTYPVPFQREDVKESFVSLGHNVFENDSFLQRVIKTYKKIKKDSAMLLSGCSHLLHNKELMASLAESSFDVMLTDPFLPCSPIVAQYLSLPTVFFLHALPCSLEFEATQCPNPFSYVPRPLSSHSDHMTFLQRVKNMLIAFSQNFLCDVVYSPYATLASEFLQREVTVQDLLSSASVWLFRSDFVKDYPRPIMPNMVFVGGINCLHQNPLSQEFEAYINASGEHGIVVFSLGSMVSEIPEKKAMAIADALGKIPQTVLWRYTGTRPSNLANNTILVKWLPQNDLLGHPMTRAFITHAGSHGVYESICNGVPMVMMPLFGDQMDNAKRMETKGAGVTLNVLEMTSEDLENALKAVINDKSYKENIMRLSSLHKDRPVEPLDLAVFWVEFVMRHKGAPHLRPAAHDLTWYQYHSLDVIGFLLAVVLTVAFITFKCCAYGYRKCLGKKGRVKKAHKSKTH

CYP2D6 = CYP2D6 (Homo sapiens, UniProt P10635); experiment: CYP inhibition/activation in pooled human liver microsomes; format: in vitro ADME
UGT 1A6 = biological target: T3, UGT 1A6 (Homo sapiens, UniProt P19224); experiment: UGT substrate assay
T3 sequence (P19224 27-532): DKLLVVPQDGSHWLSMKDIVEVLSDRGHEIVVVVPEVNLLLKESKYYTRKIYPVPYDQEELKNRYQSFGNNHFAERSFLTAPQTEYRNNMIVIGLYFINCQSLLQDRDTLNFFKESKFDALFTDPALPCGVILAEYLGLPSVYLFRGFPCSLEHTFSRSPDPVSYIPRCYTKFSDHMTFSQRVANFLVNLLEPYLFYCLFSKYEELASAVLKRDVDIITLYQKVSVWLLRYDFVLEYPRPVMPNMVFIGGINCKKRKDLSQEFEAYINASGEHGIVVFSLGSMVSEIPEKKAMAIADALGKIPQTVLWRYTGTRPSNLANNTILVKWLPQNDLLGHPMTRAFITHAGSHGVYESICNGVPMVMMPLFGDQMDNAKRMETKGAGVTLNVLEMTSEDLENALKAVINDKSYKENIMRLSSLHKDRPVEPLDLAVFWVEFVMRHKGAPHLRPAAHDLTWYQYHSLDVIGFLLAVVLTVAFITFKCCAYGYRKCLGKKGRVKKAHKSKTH

UGT 1A4 = biological target: T4, UGT 1A4 (Homo sapiens, UniProt P22310); experiment: UGT substrate assay
T4 sequence (P22310 29-534): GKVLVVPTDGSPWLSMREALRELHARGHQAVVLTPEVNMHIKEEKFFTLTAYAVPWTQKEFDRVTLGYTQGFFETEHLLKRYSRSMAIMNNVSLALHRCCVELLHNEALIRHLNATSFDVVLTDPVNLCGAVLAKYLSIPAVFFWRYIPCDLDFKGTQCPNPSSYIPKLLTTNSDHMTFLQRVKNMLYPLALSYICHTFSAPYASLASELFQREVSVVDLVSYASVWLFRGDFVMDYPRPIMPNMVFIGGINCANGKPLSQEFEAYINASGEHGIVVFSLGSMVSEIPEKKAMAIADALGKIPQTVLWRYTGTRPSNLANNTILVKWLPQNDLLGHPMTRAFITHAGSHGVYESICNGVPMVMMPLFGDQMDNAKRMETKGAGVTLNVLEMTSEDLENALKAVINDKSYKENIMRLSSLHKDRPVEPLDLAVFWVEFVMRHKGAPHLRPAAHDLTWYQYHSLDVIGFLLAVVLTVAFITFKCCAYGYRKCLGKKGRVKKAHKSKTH

CYP3A4 = CYP3A4 (Homo sapiens, UniProt P08684); experiment: CYP inhibition/activation in pooled human liver microsomes; format: in vitro ADME
UGT 1A9 = biological target: T5, UGT 1A9 (Homo sapiens, UniProt O60656); experiment: UGT substrate assay
T5 sequence (O60656 26-530): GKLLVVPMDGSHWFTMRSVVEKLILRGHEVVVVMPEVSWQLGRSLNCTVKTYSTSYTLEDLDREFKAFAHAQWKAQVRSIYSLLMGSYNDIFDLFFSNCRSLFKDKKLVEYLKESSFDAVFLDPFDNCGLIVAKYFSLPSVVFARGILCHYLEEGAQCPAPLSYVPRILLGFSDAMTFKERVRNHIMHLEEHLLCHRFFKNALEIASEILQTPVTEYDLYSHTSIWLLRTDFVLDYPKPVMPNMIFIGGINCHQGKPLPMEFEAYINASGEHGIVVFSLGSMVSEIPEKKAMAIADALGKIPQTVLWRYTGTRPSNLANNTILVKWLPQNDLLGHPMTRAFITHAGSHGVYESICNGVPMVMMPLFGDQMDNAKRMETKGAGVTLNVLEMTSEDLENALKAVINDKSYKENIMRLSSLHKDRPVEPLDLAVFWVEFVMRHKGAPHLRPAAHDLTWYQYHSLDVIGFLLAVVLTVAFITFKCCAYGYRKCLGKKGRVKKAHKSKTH

[2] = Stability in pooled human liver microsomes; format: in vitro ADME
CYP2C8 = biological target: T6, CYP2C8 (Homo sapiens, UniProt P10632); experiment: CYP inhibition/activation in pooled human liver microsomes; format: in vitro ADME
T6 sequence (P10632 1-490): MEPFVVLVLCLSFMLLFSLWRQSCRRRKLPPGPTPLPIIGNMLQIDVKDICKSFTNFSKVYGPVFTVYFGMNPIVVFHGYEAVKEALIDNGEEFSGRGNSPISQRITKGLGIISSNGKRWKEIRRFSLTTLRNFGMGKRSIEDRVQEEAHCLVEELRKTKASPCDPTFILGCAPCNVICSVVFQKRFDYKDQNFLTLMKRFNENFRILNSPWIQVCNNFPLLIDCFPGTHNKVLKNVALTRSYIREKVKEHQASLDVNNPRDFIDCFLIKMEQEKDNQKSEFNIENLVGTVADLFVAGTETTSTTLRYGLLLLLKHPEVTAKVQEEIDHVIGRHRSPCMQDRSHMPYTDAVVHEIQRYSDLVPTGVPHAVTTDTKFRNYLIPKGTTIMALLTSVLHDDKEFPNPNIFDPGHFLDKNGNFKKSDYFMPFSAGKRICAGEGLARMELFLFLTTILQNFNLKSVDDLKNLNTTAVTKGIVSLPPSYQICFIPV

HIV-1 = experiment: microbe, parasite or virus in culture; settings: Human immunodeficiency virus 1, MAGI
HIV-1 integrase = HIV-1 integrase (Human immunodeficiency virus type 1 group M subtype B, UniProt P04585); experiment: Inhibition of the strand transfer; format: biochemical
UGT 1A1 [3] = biological target: T2, UGT 1A1; settings: cited from earlier work

Sequence of CYP2D6 (P10635 whole entry): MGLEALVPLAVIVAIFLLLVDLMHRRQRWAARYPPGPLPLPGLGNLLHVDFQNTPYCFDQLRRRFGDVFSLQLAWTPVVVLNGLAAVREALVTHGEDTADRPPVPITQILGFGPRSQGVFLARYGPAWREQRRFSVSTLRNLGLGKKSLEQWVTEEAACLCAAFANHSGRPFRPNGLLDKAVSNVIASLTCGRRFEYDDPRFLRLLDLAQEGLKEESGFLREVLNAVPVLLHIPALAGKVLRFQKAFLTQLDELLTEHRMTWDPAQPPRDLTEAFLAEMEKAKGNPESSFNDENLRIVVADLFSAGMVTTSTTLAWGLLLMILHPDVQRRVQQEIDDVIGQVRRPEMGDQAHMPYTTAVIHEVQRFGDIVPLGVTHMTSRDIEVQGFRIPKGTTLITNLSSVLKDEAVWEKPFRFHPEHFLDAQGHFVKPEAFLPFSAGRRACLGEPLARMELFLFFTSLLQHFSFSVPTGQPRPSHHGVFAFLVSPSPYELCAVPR
Sequence of CYP3A4 (P08684 whole entry): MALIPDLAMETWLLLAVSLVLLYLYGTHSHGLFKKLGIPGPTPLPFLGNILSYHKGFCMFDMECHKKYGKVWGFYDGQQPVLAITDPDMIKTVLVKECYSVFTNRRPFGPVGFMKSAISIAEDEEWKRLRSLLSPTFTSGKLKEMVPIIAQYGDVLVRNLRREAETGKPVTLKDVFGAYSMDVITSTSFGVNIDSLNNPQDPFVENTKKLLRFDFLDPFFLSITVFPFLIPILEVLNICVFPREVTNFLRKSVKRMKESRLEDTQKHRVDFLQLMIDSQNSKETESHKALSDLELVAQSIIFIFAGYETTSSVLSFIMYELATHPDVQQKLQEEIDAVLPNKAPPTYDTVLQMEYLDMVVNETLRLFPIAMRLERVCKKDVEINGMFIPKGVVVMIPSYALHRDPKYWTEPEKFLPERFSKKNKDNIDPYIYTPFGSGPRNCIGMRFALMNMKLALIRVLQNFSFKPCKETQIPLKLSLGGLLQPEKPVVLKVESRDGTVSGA

With `O=C(O)/C(O)=C/C(=O)c1cc(Cc2ccc(F)cc2F)cn(Cc2ccccc2F)c1=O` [Compound 2, 4-(5-(2,4-difluorobenzyl)-1-(2-fluoro-benzyl)-2-oxo-1,2-dihydro-pyridin-3-yl)-2-hydroxy-4-oxobut-2-enoic acid] the “substrate activity towards UGT 2B7” value (UGT 2B7) was “not a substrate”, the “substrate activity towards UGT 1A1” value (UGT 1A1 [1]) was “not a substrate” and the “activation of CYP2D6” value (CYP2D6) was “did not exhibit any activation”. The “inhibition of CYP2D6” value (CYP2D6) was “not an inhibitor”, the “substrate activity towards UGT 1A6” value (UGT 1A6) was “not a substrate” and the “substrate activity towards UGT 1A4” value (UGT 1A4) was “not a substrate”. The “activation of CYP3A4” value (CYP3A4) was “did not exhibit any activation”, the “inhibition of CYP3A4” value (CYP3A4) was “not an inhibitor” and the “substrate activity towards UGT 1A9” value (UGT 1A9) was “not a substrate”. The “stability in pooled human liver microsomes” value [2] was “good stability; also recorded: relatively stable”, the “activation of CYP2C8” value (CYP2C8) was “did not exhibit any activation” and the EC50 (HIV-1; read-out: anti-HIV-1 EC50) was at most 500 nM.

In the case of `CC(C)OC(=O)/C(O)=C/C(=O)c1cc(Cc2ccc(F)cc2F)cn(Cc2ccccc2F)c1=O` [Compound 10], the IC50 (HIV-1 integrase) is reported as over 475 nM and the “conversion to compound 2 by hydrolysis in human liver microsomes” value ([2]; in 15 minutes) is reported as 100%.

Work on `O=C(O)C(=O)C=C(O)c1cc(Cc2ccc(F)cc2F)cn(Cc2ccc(F)cc2F)c1=O` [Entry 11, 4-(1,5-bis(2,4-difluorobenzyl)-2-oxo-1,2-dihydropyridin-3-yl)-4-hydroxy-2-oxobut-3-enoic acid] yielded an IC50 (HIV-1 integrase) of 5.5 ± 1.5 nM, an EC50 (HIV-1) of 300 nM and an EC50 (HIV-1; read-out: anti-HIV-1 EC50) of at most 500 nM.

For `C[C@@H]1CCO[C@H]2Cn3cc(C(=O)NCc4ccc(F)cc4F)c(=O)c(O)c3C(=O)N12` [S/GSK 1349572], the “substrate activity towards UGT 1A1” value (UGT 1A1 [3]; primary route of metabolism and clearance is glucuronidation) is given as “substrate for UGT 1A1”.

For `Cc1nnc(C(=O)NC(C)(C)c2nc(C(=O)NCc3ccc(F)cc3)c(O)c(=O)n2C)o1` [raltegravir, reference compound], the “major mechanism of clearance in humans” value (UGT 1A1 [3]; humans) is listed as “UGT 1A1-mediated glucuronidation” and the EC50 (HIV-1; read-out: anti-HIV-1 EC50) is listed as under 6 nM.
